Laboratory results: PubChem BioAssay AID2060512 (Molecular Pharmacology Branch, DTP, NCI, 2025)

System: 186277-243-T-J2-PDC complex spheroid viability
Test: Anticancer human tumor 186277-243-T-J2-PDC patient-derived colon adenocarcinoma cell line growth inhibition [GQUAD]
Conditions: for IC50: curve of first compound; for viability, T/C: stronger effect = lower value
Procedure, shortened: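 Viability of tumor cells grown as complex spheroids with endothelial and stromal cells, exposed to drug combinations. Top concentration at or near clinical Cmax (else 10 microM), diluted in half-log increments.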

[1] = second compound 0.0316 µM, first compound 0.0316 µM
[2] = second compound 0.0316 µM, first compound 0.1 µM
[3] = second compound 0.0316 µM, first compound 0.316 µM
[4] = second compound 0.0316 µM, first compound 1 µM
[5] = second compound 0.0316 µM, first compound 3.16 µM
[6] = second compound 0.0316 µM, first compound 10 µM
[7] = second compound 0.1 µM, first compound 0.0316 µM
[8] = second compound 0.1 µM, first compound 0.1 µM
[9] = second compound 0.1 µM, first compound 0.316 µM
[10] = second compound 0.1 µM, first compound 1 µM
[11] = second compound 0.1 µM, first compound 3.16 µM
[12] = second compound 0.1 µM, first compound 10 µM
[13] = second compound 0.316 µM, first compound 0.0316 µM
[14] = second compound 0.316 µM, first compound 0.1 µM
[15] = second compound 0.316 µM, first compound 0.316 µM
[16] = second compound 0.316 µM, first compound 1 µM
[17] = second compound 0.316 µM, first compound 3.16 µM
[18] = second compound 0.316 µM, first compound 10 µM
[19] = second compound 1 µM, first compound 0.0316 µM
[20] = second compound 1 µM, first compound 0.1 µM
[21] = second compound 1 µM, first compound 0.316 µM
[22] = second compound 1 µM, first compound 1 µM
[23] = second compound 1 µM, first compound 3.16 µM
[24] = second compound 1 µM, first compound 10 µM
[25] = second compound 3.16 µM, first compound 0.0316 µM
[26] = second compound 3.16 µM, first compound 0.1 µM
[27] = second compound 3.16 µM, first compound 0.316 µM
[28] = second compound 3.16 µM, first compound 1 µM
[29] = second compound 3.16 µM, first compound 3.16 µM
[30] = second compound 3.16 µM, first compound 10 µM
[31] = second compound 10 µM, first compound 0.0316 µM
[32] = second compound 10 µM, first compound 0.1 µM
[33] = second compound 10 µM, first compound 0.316 µM
[34] = second compound 10 µM, first compound 1 µM
[35] = second compound 10 µM, first compound 3.16 µM
[36] = second compound 10 µM, first compound 10 µM
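For viability, T/C in this document: 100% = DMSO vehicle control viability.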

C#Cc1c(F)ccc2cc(O)cc(-c3ncc4c(N5CC6CCC(C5)N6)nc(OCC56CCCN5CC(F)C6)nc4c3F)c12 (stereo not given) + Cc1cnc(CNC(=O)c2c(=O)c3ccc(N4CCCN(C)CC4)nc3n3c2sc2ccccc23)cn1
IC50 (second compound 0.0316 µM): 58.7 nM
IC50 (second compound 0.1 µM): < 31.6 nM
IC50 (second compound 0.316 µM): < 31.6 nM
IC50 (second compound 1 µM): < 31.6 nM
IC50 (second compound 3.16 µM): < 31.6 nM
IC50 (second compound 10 µM): < 31.6 nM
viability, T/C [1]: 75.4%
viability, T/C [2]: 26.8%
viability, T/C [3]: 19.9%
viability, T/C [4]: 8.12%
viability, T/C [5]: 13.9%
viability, T/C [6]: 11.4%
viability, T/C [7]: 40%
viability, T/C [8]: 18.8%
viability, T/C [9]: 9.79%
viability, T/C [10]: 7.98%
viability, T/C [11]: 9.12%
viability, T/C [12]: 5.32%
viability, T/C [13]: 23.8%
viability, T/C [14]: 14.6%
viability, T/C [15]: 8.91%
viability, T/C [16]: 5.69%
viability, T/C [17]: 5.84%
viability, T/C [18]: 4.29%
viability, T/C [19]: 18.2%
viability, T/C [20]: 9.62%
viability, T/C [21]: 6.74%
viability, T/C [22]: 5.02%
viability, T/C [23]: 5.11%
viability, T/C [24]: 3.11%
viability, T/C [25]: 17.2%
viability, T/C [26]: 12.5%
viability, T/C [27]: 5.45%
viability, T/C [28]: 4.44%
viability, T/C [29]: 4.72%
viability, T/C [30]: 2.99%
viability, T/C [31]: 14.2%
viability, T/C [32]: 9.54%
viability, T/C [33]: 4.98%
viability, T/C [34]: 0.27%
viability, T/C [35]: 2.03%
viability, T/C [36]: 0.19%

CC(=O)O[C@H]1C(=O)[C@@]2(C)[C@H]([C@H](OC(=O)c3ccccc3)[C@]3(O)C[C@H](OC(=O)[C@H](O)[C@@H](NC(=O)c4ccccc4)c4ccccc4)C(C)=C1C3(C)C)[C@]1(OC(C)=O)CO[C@@H]1C[C@@H]2O + Cc1cnc(CNC(=O)c2c(=O)c3ccc(N4CCCN(C)CC4)nc3n3c2sc2ccccc23)cn1
IC50 (second compound 0.0316 µM): < 31.6 nM
IC50 (second compound 0.1 µM): < 31.6 nM
IC50 (second compound 0.316 µM): < 31.6 nM
IC50 (second compound 1 µM): < 31.6 nM
IC50 (second compound 3.16 µM): < 31.6 nM
IC50 (second compound 10 µM): < 31.6 nM
viability, T/C [1]: 25.6%
viability, T/C [2]: 11.8%
viability, T/C [3]: 7.83%
viability, T/C [4]: 7.31%
viability, T/C [5]: 7.28%
viability, T/C [6]: 7.34%
viability, T/C [7]: 26.4%
viability, T/C [8]: 18.3%
viability, T/C [9]: 11.9%
viability, T/C [10]: 11.9%
viability, T/C [11]: 11%
viability, T/C [12]: 10.4%
viability, T/C [13]: 32.6%
viability, T/C [14]: 18.1%
viability, T/C [15]: 18.1%
viability, T/C [16]: 20.5%
viability, T/C [17]: 17%
viability, T/C [18]: 16.6%
viability, T/C [19]: 29.4%
viability, T/C [20]: 29.9%
viability, T/C [21]: 23.1%
viability, T/C [22]: 25.1%
viability, T/C [23]: 23.8%
viability, T/C [24]: 21.5%
viability, T/C [25]: 24.4%
viability, T/C [26]: 27%
viability, T/C [27]: 24%
viability, T/C [28]: 23.5%
viability, T/C [29]: 25.5%
viability, T/C [30]: 22.3%
viability, T/C [31]: 29.8%
viability, T/C [32]: 25.5%
viability, T/C [33]: 26.1%
viability, T/C [34]: 25.2%
viability, T/C [35]: 24.8%
viability, T/C [36]: 23.7%

CCCS(=O)(=O)Nc1ccc(F)c(C(=O)c2c[nH]c3ncc(-c4ccc(Cl)cc4)cc23)c1F + Cc1cnc(CNC(=O)c2c(=O)c3ccc(N4CCCN(C)CC4)nc3n3c2sc2ccccc23)cn1
IC50 (second compound 0.0316 µM): 6120 nM
IC50 (second compound 0.1 µM): 4930 nM
IC50 (second compound 0.316 µM): 4410 nM
IC50 (second compound 1 µM): < 31.6 nM
IC50 (second compound 3.16 µM): < 31.6 nM
IC50 (second compound 10 µM): < 31.6 nM
viability, T/C [1]: 113%
viability, T/C [2]: 102%
viability, T/C [3]: 116%
viability, T/C [4]: 95.4%
viability, T/C [5]: 88.3%
viability, T/C [6]: 23.4%
viability, T/C [7]: 79.3%
viability, T/C [8]: 72.4%
viability, T/C [9]: 93.1%
viability, T/C [10]: 74.1%
viability, T/C [11]: 72.3%
viability, T/C [12]: 14.5%
viability, T/C [13]: 63.6%
viability, T/C [14]: 62.3%
viability, T/C [15]: 68.5%
viability, T/C [16]: 59%
viability, T/C [17]: 65.7%
viability, T/C [18]: 16.1%
viability, T/C [19]: 47.7%
viability, T/C [20]: 47%
viability, T/C [21]: 54.8%
viability, T/C [22]: 49.3%
viability, T/C [23]: 47.5%
viability, T/C [24]: 15.8%
viability, T/C [25]: 31.3%
viability, T/C [26]: 43.9%
viability, T/C [27]: 48.8%
viability, T/C [28]: 41%
viability, T/C [29]: 38.3%
viability, T/C [30]: 9.83%
viability, T/C [31]: 47.6%
viability, T/C [32]: 36.8%
viability, T/C [33]: 37.3%
viability, T/C [34]: 40.4%
viability, T/C [35]: 37.8%
viability, T/C [36]: 0.36%

Nc1ccn(C2OC(CO)C(O)C2(F)F)c(=O)n1 (stereo not given) + Cc1cnc(CNC(=O)c2c(=O)c3ccc(N4CCCN(C)CC4)nc3n3c2sc2ccccc23)cn1
IC50 (second compound 0.0316 µM): < 31.6 nM
IC50 (second compound 0.1 µM): < 31.6 nM
IC50 (second compound 0.316 µM): < 31.6 nM
IC50 (second compound 1 µM): < 31.6 nM
IC50 (second compound 3.16 µM): < 31.6 nM
IC50 (second compound 10 µM): < 31.6 nM
viability, T/C [1]: 21.2%
viability, T/C [2]: 13.3%
viability, T/C [3]: 12.3%
viability, T/C [4]: 11.9%
viability, T/C [5]: 12.2%
viability, T/C [6]: 12.8%
viability, T/C [7]: 27.1%
viability, T/C [8]: 17.6%
viability, T/C [9]: 15.3%
viability, T/C [10]: 12.9%
viability, T/C [11]: 15.4%
viability, T/C [12]: 15.9%
viability, T/C [13]: 36%
viability, T/C [14]: 28.4%
viability, T/C [15]: 21.5%
viability, T/C [16]: 16.8%
viability, T/C [17]: 18.6%
viability, T/C [18]: 16%
viability, T/C [19]: 32.6%
viability, T/C [20]: 30.2%
viability, T/C [21]: 22.8%
viability, T/C [22]: 21.4%
viability, T/C [23]: 19.9%
viability, T/C [24]: 17.7%
viability, T/C [25]: 33.1%
viability, T/C [26]: 24.8%
viability, T/C [27]: 22.6%
viability, T/C [28]: 19.5%
viability, T/C [29]: 19.3%
viability, T/C [30]: 16.5%
viability, T/C [31]: 34.3%
viability, T/C [32]: 25.1%
viability, T/C [33]: 25.4%
viability, T/C [34]: 18.7%
viability, T/C [35]: 21.4%
viability, T/C [36]: 19.2%

O=c1[nH]cc(F)c(=O)[nH]1 + Cc1cnc(CNC(=O)c2c(=O)c3ccc(N4CCCN(C)CC4)nc3n3c2sc2ccccc23)cn1
IC50 (second compound 0.0316 µM): > 10000 nM
IC50 (second compound 0.1 µM): > 10000 nM
IC50 (second compound 0.316 µM): > 10000 nM
IC50 (second compound 1 µM): < 31.6 nM
IC50 (second compound 3.16 µM): < 31.6 nM
IC50 (second compound 10 µM): < 31.6 nM
viability, T/C [1]: 106%
viability, T/C [2]: 110%
viability, T/C [3]: 109%
viability, T/C [4]: 98.5%
viability, T/C [5]: 82.9%
viability, T/C [6]: 57%
viability, T/C [7]: 86.4%
viability, T/C [8]: 93.7%
viability, T/C [9]: 99.9%
viability, T/C [10]: 79%
viability, T/C [11]: 93.3%
viability, T/C [12]: 66.3%
viability, T/C [13]: 76.8%
viability, T/C [14]: 73.3%
viability, T/C [15]: 84.7%
viability, T/C [16]: 57.7%
viability, T/C [17]: 75.1%
viability, T/C [18]: 55.1%
viability, T/C [19]: 47.9%
viability, T/C [20]: 56.3%
viability, T/C [21]: 50.7%
viability, T/C [22]: 56.6%
viability, T/C [23]: 64.3%
viability, T/C [24]: 56.3%
viability, T/C [25]: 49.4%
viability, T/C [26]: 44.8%
viability, T/C [27]: 51.5%
viability, T/C [28]: 50.7%
viability, T/C [29]: 61.7%
viability, T/C [30]: 43.7%
viability, T/C [31]: 40.5%
viability, T/C [32]: 41.7%
viability, T/C [33]: 39.2%
viability, T/C [34]: 53.3%
viability, T/C [35]: 48.7%
viability, T/C [36]: 45.9%
